According to PMC8550792, “Evolution of kinase polypharmacology across HSP90 drug discovery” (Cell Chemical Biology, 2021):

What was measured:
Assay in all cases: biochemical
Type in all cases: biochemical
382 unique human kinases [1] = biological target: T1, 382 unique human kinases (Homo sapiens, UniProt O15264); settings: P38d/MAPK13, 10 uM; for remaining activity at 10 µM: read-out: % Enzyme Activity (relative to DMSO controls)
T1 construct: purchased Reaction Biology (HotSpot contract assay)
T1 sequence (O15264 1-365): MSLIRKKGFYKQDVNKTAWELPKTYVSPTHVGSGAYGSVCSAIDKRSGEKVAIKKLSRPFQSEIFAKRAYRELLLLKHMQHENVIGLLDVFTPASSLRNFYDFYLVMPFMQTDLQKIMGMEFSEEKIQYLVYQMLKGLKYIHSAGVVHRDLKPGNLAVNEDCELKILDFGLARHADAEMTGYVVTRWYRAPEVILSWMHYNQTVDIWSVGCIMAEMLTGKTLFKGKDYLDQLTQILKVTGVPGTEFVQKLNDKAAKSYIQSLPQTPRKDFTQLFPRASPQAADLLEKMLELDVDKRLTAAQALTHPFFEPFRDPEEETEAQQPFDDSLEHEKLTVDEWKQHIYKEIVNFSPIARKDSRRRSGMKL

382 unique human kinases [2] = biological target: T2, 382 unique human kinases (Homo sapiens, UniProt P07949, A883F); settings: kinase RET (A883F), compound 10 uM; for remaining activity at 10 µM: read-out: % Enzyme Activity (relative to DMSO controls)
T2 construct: purchased Reaction Biology (HotSpot contract assay)

382 unique human kinases [3] = biological target: T3, 382 unique human kinases (Homo sapiens, UniProt P07949, S904F); settings: RET (S904F), 10 uM; for remaining activity at 10 µM: read-out: % Enzyme Activity (relative to DMSO controls)
T3 construct: purchased Reaction Biology (HotSpot contract assay)

382 unique human kinases [4] = biological target: T4, 382 unique human kinases (Homo sapiens, UniProt P08581, D1228N); settings: c-MET (D1228N), compound at 10 uM, duplicate values; for remaining activity at 10 µM: read-out: % Enzyme Activity (relative to DMSO controls)
T4 construct: purchased Reaction Biology (HotSpot contract assay)

382 unique human kinases [5] = biological target: T5, 382 unique human kinases (Homo sapiens, UniProt P21802, K641R); settings: FGFR2 (K641R), 10 uM; for remaining activity at 10 µM: read-out: % Enzyme Activity (relative to DMSO controls)
T5 construct: purchased Reaction Biology (HotSpot contract assay)

382 unique human kinases [6] = biological target: T6, 382 unique human kinases (Homo sapiens, UniProt P22607, V555M); settings: FGFR3 (V555M), 10 uM; for remaining activity at 10 µM: read-out: % Enzyme Activity (relative to DMSO controls)
T6 construct: purchased Reaction Biology (HotSpot contract assay)

382 unique human kinases [7] = biological target: T7, 382 unique human kinases (Homo sapiens, UniProt Q04759); settings: PKCtheta, compound at 10 uM, duplicate values; for remaining activity at 10 µM: read-out: % Enzyme Activity (relative to DMSO controls)
T7 construct: purchased Reaction Biology (HotSpot contract assay)

382 unique human kinases [8] = biological target: T8, 382 unique human kinases (Homo sapiens, UniProt Q9NYY3); settings: kinase PLK2, compound 10 uM; for remaining activity at 10 µM: read-out: % Enzyme Activity (relative to DMSO controls)
T8 construct: purchased Reaction Biology (HotSpot contract assay)

382 unique human kinases [9] = biological target: T9, 382 unique human kinases (Homo sapiens, UniProt Q9UBS0); settings: kinase p70S6Kb/RPS6KB2, compound 10 uM; for remaining activity at 10 µM: read-out: % Enzyme Activity (relative to DMSO controls)
T9 construct: purchased Reaction Biology (HotSpot contract assay)

382 unique human kinases [10] = biological target: T10, 382 unique human kinases (Homo sapiens, UniProt Q9Y3S1); settings: WNK2, 10 uM; for remaining activity at 10 µM: read-out: % Enzyme Activity (relative to DMSO controls)
T10 construct: purchased Reaction Biology (HotSpot contract assay)

382 unique human kinases [11] = biological target: T11, 382 unique human kinases (Homo sapiens, UniProt P07947); settings: YES/YES1, [ATP] 50 µM
T11 construct: purchased Reaction Biology (HotSpot contract assay)

382 unique human kinases [12] = biological target: T12, 382 unique human kinases (Homo sapiens, UniProt P16234, V561D); settings: PDGFRa (V561D), 10 uM; for remaining activity at 10 µM: read-out: % Enzyme Activity (relative to DMSO controls)
T12 construct: purchased Reaction Biology (HotSpot contract assay)

382 unique human kinases [13] = biological target: T13, 382 unique human kinases (Homo sapiens, UniProt Q15418); settings: RSK1, [ATP] 20 µM, compound 10 uM; for remaining activity at 10 µM: read-out: % Enzyme Activity (relative to DMSO controls)
T13 construct: purchased Reaction Biology (HotSpot contract assay)

382 unique human kinases [14] = biological target: T14, 382 unique human kinases (Homo sapiens, UniProt Q16620); settings: TRKB, [ATP] 50 µM, compound 10 uM; for remaining activity at 10 µM: read-out: % Enzyme Activity (relative to DMSO controls)
T14 construct: purchased Reaction Biology (HotSpot contract assay)

382 unique human kinases [15] = biological target: T15, 382 unique human kinases (Homo sapiens, UniProt Q5S007, G2019S); settings: LRRK2 (G2019S), [ATP] 50 µM, compound 10 uM; for remaining activity at 10 µM: read-out: % Enzyme Activity (relative to DMSO controls)
T15 construct: purchased Reaction Biology (HotSpot contract assay)

382 unique human kinases [16] = biological target: T16, 382 unique human kinases (Homo sapiens, UniProt Q8IYT8); settings: ULK2, 10 uM; for remaining activity at 10 µM: read-out: % Enzyme Activity (relative to DMSO controls)
T16 construct: purchased Reaction Biology (HotSpot contract assay)
T16 sequence (Q8IYT8 1-1036): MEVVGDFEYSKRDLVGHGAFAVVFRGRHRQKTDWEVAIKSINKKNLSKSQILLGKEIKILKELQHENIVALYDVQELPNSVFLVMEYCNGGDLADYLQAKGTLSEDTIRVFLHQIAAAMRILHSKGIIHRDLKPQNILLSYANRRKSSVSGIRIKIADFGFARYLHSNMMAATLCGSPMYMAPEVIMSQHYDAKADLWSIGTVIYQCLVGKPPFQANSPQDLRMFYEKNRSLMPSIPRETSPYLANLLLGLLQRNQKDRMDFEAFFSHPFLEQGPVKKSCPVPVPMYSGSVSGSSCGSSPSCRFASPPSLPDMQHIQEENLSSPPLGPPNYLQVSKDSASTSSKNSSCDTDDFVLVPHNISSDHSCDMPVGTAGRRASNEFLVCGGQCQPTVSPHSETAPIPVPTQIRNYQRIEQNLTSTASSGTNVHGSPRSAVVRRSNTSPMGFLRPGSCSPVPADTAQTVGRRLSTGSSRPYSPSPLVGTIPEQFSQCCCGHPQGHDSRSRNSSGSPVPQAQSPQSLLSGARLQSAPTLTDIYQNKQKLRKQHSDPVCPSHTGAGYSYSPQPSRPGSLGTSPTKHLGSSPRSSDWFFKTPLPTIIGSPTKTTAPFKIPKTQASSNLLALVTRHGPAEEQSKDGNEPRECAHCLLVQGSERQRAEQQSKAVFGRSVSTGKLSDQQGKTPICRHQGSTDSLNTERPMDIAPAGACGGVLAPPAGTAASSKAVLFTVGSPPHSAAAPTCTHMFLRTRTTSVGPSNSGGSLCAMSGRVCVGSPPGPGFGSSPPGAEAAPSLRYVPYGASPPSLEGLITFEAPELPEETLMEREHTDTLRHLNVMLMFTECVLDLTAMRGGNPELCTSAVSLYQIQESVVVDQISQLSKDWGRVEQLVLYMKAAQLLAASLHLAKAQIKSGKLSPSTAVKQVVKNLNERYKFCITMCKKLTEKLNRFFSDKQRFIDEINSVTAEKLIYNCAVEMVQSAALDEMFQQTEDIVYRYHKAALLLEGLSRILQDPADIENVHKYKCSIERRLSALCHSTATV

[17] = compound 10 uM, read-out: % Enzyme Activity (relative to DMSO controls)

T6 sequence (P22607 23-806 V555M): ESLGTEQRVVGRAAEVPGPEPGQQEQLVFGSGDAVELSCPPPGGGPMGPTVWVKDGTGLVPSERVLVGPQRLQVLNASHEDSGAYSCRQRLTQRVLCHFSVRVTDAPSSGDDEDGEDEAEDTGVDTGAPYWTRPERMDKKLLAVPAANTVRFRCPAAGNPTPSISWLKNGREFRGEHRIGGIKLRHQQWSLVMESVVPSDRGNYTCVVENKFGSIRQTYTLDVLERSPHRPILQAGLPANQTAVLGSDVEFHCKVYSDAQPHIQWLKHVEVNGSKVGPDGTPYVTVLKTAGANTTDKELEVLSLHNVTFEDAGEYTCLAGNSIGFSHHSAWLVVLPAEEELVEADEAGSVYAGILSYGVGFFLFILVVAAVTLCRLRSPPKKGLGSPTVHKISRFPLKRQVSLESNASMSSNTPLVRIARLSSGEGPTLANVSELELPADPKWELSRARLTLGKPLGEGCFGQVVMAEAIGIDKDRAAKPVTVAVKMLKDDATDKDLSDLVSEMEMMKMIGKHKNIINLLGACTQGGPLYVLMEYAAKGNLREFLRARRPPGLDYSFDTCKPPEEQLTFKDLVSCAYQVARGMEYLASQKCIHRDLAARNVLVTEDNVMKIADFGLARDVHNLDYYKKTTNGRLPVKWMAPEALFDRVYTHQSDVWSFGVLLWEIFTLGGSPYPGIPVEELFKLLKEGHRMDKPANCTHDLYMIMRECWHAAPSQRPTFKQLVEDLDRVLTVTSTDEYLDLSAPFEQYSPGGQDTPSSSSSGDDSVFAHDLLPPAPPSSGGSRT
T8 sequence (Q9NYY3 whole entry): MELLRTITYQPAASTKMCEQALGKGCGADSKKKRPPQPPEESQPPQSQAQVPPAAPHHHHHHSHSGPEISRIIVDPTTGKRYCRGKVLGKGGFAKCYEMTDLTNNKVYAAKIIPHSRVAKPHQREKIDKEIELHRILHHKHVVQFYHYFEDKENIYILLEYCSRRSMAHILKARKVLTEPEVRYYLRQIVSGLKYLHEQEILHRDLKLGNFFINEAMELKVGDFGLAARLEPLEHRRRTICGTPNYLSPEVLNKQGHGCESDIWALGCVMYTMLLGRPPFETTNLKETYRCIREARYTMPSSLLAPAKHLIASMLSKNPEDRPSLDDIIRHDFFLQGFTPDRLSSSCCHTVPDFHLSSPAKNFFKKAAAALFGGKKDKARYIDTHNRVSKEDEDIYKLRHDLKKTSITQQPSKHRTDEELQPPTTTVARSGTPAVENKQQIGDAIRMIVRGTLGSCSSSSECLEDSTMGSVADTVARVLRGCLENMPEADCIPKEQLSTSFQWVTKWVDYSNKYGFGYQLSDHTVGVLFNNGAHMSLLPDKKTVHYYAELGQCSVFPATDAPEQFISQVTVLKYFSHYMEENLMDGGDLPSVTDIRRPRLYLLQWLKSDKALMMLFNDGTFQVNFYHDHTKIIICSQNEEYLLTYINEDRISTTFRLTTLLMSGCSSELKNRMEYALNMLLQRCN
T7 sequence (Q04759 whole entry): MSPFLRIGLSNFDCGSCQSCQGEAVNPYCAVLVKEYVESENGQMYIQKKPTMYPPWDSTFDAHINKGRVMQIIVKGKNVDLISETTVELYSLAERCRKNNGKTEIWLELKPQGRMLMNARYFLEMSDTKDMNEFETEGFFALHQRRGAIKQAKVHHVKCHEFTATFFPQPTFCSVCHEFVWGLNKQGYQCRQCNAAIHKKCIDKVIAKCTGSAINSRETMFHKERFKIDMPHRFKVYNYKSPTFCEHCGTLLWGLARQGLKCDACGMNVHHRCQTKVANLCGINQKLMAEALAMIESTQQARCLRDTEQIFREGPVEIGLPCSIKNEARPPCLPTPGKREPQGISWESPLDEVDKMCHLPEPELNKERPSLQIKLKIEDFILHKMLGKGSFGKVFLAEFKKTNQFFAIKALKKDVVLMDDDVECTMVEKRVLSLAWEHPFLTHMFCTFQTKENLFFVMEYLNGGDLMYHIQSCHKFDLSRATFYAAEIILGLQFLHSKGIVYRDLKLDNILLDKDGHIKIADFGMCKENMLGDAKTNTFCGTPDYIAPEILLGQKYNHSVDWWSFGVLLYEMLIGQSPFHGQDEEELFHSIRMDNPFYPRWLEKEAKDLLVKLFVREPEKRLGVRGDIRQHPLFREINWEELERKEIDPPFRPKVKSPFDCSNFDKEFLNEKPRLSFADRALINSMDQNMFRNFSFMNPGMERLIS
T9 sequence (Q9UBS0 whole entry): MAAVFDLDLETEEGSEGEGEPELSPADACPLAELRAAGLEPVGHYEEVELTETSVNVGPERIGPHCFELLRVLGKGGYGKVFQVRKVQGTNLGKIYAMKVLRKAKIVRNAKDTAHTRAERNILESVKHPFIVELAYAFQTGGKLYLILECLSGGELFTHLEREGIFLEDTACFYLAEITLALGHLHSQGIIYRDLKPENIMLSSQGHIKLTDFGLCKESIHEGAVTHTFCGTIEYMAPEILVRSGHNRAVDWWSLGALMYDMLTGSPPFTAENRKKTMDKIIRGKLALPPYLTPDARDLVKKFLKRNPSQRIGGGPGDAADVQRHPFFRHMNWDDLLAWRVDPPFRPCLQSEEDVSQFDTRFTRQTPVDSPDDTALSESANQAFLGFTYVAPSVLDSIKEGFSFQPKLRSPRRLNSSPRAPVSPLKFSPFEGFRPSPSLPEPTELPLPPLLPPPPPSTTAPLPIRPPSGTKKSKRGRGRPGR
T5 sequence (P21802 22-821 K641R): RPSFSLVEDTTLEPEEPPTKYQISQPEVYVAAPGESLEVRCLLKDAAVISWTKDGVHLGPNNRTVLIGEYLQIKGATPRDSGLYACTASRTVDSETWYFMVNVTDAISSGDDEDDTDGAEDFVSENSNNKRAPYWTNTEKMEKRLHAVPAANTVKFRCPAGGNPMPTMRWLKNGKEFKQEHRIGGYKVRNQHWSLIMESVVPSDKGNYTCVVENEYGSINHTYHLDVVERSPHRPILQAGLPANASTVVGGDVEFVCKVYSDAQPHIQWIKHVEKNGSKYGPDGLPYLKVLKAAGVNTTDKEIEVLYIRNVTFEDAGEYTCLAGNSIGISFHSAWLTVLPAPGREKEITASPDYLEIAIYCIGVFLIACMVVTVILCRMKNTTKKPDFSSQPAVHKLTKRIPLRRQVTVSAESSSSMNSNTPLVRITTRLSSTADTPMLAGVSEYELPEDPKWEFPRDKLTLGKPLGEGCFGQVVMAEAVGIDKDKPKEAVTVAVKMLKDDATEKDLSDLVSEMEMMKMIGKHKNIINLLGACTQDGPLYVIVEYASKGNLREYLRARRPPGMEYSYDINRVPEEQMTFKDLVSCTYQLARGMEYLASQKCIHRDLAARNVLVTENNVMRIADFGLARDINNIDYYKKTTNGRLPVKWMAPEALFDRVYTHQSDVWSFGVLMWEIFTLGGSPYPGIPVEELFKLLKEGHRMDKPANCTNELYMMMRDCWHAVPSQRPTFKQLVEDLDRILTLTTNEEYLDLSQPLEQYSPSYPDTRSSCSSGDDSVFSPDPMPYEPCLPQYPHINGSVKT
T3 sequence (P07949 29-1114 S904F): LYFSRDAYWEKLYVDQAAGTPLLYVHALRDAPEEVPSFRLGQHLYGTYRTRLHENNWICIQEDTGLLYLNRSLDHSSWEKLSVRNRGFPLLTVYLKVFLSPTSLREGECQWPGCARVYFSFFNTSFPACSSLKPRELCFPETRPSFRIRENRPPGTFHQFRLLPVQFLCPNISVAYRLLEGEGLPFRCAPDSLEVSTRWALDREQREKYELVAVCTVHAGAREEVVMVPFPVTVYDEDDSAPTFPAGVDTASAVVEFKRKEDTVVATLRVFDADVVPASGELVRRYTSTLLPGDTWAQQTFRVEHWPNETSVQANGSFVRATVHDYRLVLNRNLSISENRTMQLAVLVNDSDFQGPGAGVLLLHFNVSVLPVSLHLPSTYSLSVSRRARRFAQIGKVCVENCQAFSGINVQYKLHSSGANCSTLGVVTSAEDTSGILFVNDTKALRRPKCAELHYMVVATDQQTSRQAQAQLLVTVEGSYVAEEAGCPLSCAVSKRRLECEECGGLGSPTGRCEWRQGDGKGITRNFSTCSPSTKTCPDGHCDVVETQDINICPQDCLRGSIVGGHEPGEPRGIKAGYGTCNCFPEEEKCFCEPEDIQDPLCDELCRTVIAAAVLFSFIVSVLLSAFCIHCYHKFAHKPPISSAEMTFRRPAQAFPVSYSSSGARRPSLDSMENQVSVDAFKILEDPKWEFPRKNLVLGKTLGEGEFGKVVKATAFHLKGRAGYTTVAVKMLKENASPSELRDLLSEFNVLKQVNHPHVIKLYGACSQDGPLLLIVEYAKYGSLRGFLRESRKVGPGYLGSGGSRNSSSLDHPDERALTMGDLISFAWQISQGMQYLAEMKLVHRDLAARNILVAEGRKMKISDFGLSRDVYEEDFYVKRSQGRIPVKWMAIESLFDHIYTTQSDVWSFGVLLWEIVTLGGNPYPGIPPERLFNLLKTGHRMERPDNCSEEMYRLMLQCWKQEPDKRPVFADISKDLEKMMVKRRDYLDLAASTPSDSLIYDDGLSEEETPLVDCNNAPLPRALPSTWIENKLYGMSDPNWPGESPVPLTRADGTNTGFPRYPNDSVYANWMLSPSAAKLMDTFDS
T2 sequence (P07949 29-1114 A883F): as the sequence (P07949 29-1114 S904F) above, with A855F, F876S counted along it

SMILES | remaining activity at 10 µM (382 unique human kinases [1]) | remaining activity at 10 µM (382 unique human kinases [2]) | remaining activity at 10 µM (382 unique human kinases [3]) | remaining activity at 10 µM (382 unique human kinases [4]) | remaining activity at 10 µM (382 unique human kinases [5]) | remaining activity at 10 µM (382 unique human kinases [6]) | remaining activity at 10 µM (382 unique human kinases [7]) | remaining activity at 10 µM (382 unique human kinases [8]) | remaining activity at 10 µM (382 unique human kinases [9]) | remaining activity at 10 µM (382 unique human kinases [10]) | remaining activity at 10 µM (382 unique human kinases [11]; [17]) | remaining activity at 10 µM (382 unique human kinases [12]) | remaining activity at 10 µM (382 unique human kinases [13]) | remaining activity at 10 µM (382 unique human kinases [14]) | remaining activity at 10 µM (382 unique human kinases [15]) | remaining activity at 10 µM (382 unique human kinases [16]) | also measured
CC(C)c1cc(-c2n[nH]c(=O)n2-c2ccc3c(ccn3C)c2)c(O)cc1O [Ganetespib (STA9090)] | 83.5% | 83.7% | 61.6% | 108% | 78% | 65.2% | 148% | 86.1% | 96.6% | 59.5% | – | – | – | – | – | – | –
CC(C)c1cc(-c2n[nH]c(=O)n2-c2ccc3c(ccn3C)c2)c(O)cc1O [Ganetespib] | – | – | – | – | – | – | – | – | – | – | 12.8% | 99.7% | 54.1% | 21.5% | 28.6% | 107% | remaining activity at 1 µM (382 unique human kinases [11]; compound 1 uM, read-out: % Enzyme Activity (relative to DMSO controls)): 45.5%
CCNC(=O)c1noc(-c2cc(C(C)C)c(O)cc2O)c1-c1ccc(CN2CCOCC2)cc1 [Luminespib (AUY-922)] | 86.8% | 96.4% | 102% | 107% | 98.4% | 125% | 102% | 106% | 113% | 107% | – | – | – | – | – | – | % Enzyme Activity (relative to DMSO controls) (382 unique human kinases [1]): 86.84%; % Enzyme Activity (relative to DMSO controls) (382 unique human kinases [2]): 95.34%; % Enzyme Activity (relative to DMSO controls) (382 unique human kinases [3]): 101.49%; % Enzyme Activity (relative to DMSO controls) (382 unique human kinases [4]): 105.32%; % Enzyme Activity (relative to DMSO controls) (382 unique human kinases [5]): 98.16%; % Enzyme Activity (relative to DMSO controls) (382 unique human kinases [6]): 124.56%; % Enzyme Activity (relative to DMSO controls) (382 unique human kinases [7]): 101.70%; % Enzyme Activity (relative to DMSO controls) (382 unique human kinases [8]): 105.08%; % Enzyme Activity (relative to DMSO controls) (382 unique human kinases [9]): 108.19%; % Enzyme Activity (relative to DMSO controls) (382 unique human kinases [10]): 106.80%
CCNC(=O)c1noc(-c2cc(C(C)C)c(O)cc2O)c1-c1ccc(CN2CCOCC2)cc1 [Luminespib] | – | – | – | – | – | – | – | – | – | – | 52.3% | 104% | 103% | 98.1% | 93.5% | 107% | % Enzyme Activity (relative to DMSO controls) (382 unique human kinases [11]; compound 10 uM): 49.59%; % Enzyme Activity (relative to DMSO controls) (382 unique human kinases [12]): 103.61%; % Enzyme Activity (relative to DMSO controls) (382 unique human kinases [13]): 100.81%; % Enzyme Activity (relative to DMSO controls) (382 unique human kinases [14]): 97.46%; % Enzyme Activity (relative to DMSO controls) (382 unique human kinases [15]): 91.80%; % Enzyme Activity (relative to DMSO controls) (382 unique human kinases [16]): 104.48%
